From publication PMC2713172 (Biochemistry, 2008)

Legend:
CYP2C9 F476L mutant = CYP2C9 F476L mutant (Homo sapiens, UniProt P11712, F476L); conditions: F476L
CYP2C9 F476W mutant [1] = biological target: T1, CYP2C9 F476W mutant (Homo sapiens, UniProt P11712, F476W)
[2] = biological target: CYP2C9 F114L/F476L double mutant (Homo sapiens, UniProt P11712, F114L/F476L); conditions: F114L/F476L
CYP2C9 F114W mutant = CYP2C9 F114W mutant (Homo sapiens, UniProt P11712, F114W); assay: in vitro; conditions: pH 7.4
CYP2C9 F476W mutant [3] = biological target: T1, CYP2C9 F476W mutant; assay: in vitro; conditions: pH 7.4
[4] = biological target: CYP2C9 F114W/F476W double mutant (Homo sapiens, UniProt P11712, F114W/F476W); assay: in vitro; conditions: pH 7.4
wild-type CYP2C9 [5] = biological target: T2, wild-type CYP2C9 (Homo sapiens, UniProt P11712); assay: biochemical
wild-type CYP2C9 [6] = biological target: T2, wild-type CYP2C9

percent of wild-type ΔA/K (CYP2C9 F476L mutant): 23% | ΔA/K (CYP2C9 F476L mutant): 1.2 μM^−1 × 10^−3 | ΔAmax (maximum observed difference 390–420 nm) (CYP2C9 F476L mutant): 11 ± 0.4 ×10^−3 | percent of wild-type ΔA/K (CYP2C9 F476W mutant [1]; F476W): 5% | ΔA/K (CYP2C9 F476W mutant [1]; F476W): 0.3 μM^−1 × 10^−3 | fraction high spin (CYP2C9 F476W mutant [1]; F476W + ligand, used for the NMR distance calculation): 0.06 | percent of wild-type ΔA/K [2]: 8% | ΔA/K [2]: 0.4 μM^−1 × 10^−3 | ΔAmax (maximum observed difference 390–420 nm) [2]: 4.4 ± 0.2 ×10^−3 | Km at 20 min (CYP2C9 F114W mutant): 19.5 ± 3.2 µM | Km at 20 min (CYP2C9 F476W mutant [3]): 105 ± 3.9 µM | Km at 20 min [4]: 237 ± 11.8 µM | Kd (wild-type CYP2C9 [5]): 3.4 ± 0.4 µM | percent of wild-type kcat/Km (wild-type CYP2C9 [6]; WT): 100% | kcat (wild-type CYP2C9 [6]; WT, substrate hydroxylation): 0.15 ± 0.0067 s⁻¹ | Km at 20 min (wild-type CYP2C9 [6]; human, pH 7.4): 22.9 ± 3.7 µM
Structure (SMILES): C[C@H](C(=O)O)c1ccc(-c2ccccc2)c(F)c1 [(S)-flurbiprofen]
